Test results taken from US9370535B2, “Method for treatment of advanced solid tumors” (BOEHRINGER INGELHEIM INTERNATIONAL GMBH, priority 2011, dated 2016).

System: patients with advanced and/or metastatic solid tumours
Test: Clinical trial of Volasertib in combination with Cisplatin (arm A) or Carboplatin (arm B)
Type: in vivo
Details: for maximum tolerated dose for volasertib: single 2-hour infusion on day 1 every 3 weeks
Excerpt: Sequential cohorts of three to six patients (pts) received a single 2-hour infusion of Volasertib (V) in combination with Cisplatin (Cis) (arm A) or Carboplatin (Ca) (arm B), on day 1 every 3 weeks. Cis and Ca were given for up to six cycles (Cy), V was continued until disease progression or unacceptable toxicity.

**Q.** CC[C@@H]1C(=O)N(C)c2cnc(Nc3ccc(C(=O)N[C@H]4CC[C@H](N5CCN(CC6CC6)CC5)CC4)cc3OC)nc2N1C(C)C [Volasertib, N-[trans-4-[4-(cyclopropylmethyl)-1-piperazinyl]cyclohexyl]-4-[[(7R)-7-ethyl-5,6,7,8-tetrahydro-5-methyl-8-(1-methylethyl)-6-oxo-2-pteridinyl]amino]-3-methoxy-benzamide] was tested. Which “partial responses (PR) observed” value (arm A (with Cisplatin), CHOP-resistant follicular dendritic reticulum cell sarcoma, dose levels A2, A4) did it give?
**A.** two

**Q.** What about the “partial responses (PR) observed” value (arm A (with Cisplatin), pretreated lung cancer, dose level A5, PR yet to be confirmed) of the same molecule?
**A.** one

**Q.** And the “partial responses (PR) observed” value (arm B (with Carboplatin), heavily-pretreated head and neck carcinoma, dose level B4)?
**A.** one

**Q.** What about the “partial responses (PR) observed” value (both arms together (combination with Cisplatin or Carboplatin), 46 patients) of the same molecule?
**A.** Four

**Q.** And the “side effects (myelosuppression) on combination” value (human, in vivo)?
**A.** without potentiation of those side effects

**Q.** What about the “maximum tolerated dose for volasertib” value (in combination with carboplatin) of the same molecule?
**A.** ≥ 300 mg

**Q.** What about the “maximum tolerated dose for volasertib” value (in combination with cisplatin) of the same molecule?
**A.** ≥ 300 mg
